Columns and labels:
[1] = system: PDGF-R; test: PDGF-R Assay (cellular ELISA, U1242 cells); assay type: cell-based; parameters: concentration or dose not given beside the values; details: protocol P.119
Outline: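 Cellular ELISA for receptor autophosphorylation: after 2 hr test-compound treatment of serum-free U1242 cells at 37°C, ligand is added for 5–10 min, cells are lysed (HNTG) and receptor captured by specific antibody. Anti-phosphotyrosine plus secondary antibody with ABTS colour read at 410/630 nm, compared with compound-free control cells.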

[2] = molecular target: T1, EGFR (Homo sapiens, UniProt P00533); test: Biochemical EGFR Assay; parameters: concentration or dose not given beside the values; details: protocol P.167
T1 construct: endogenous in cells; host or cells: A431 cells (lysate, captured with SUMO1 anti-EGFR antibody)
T1 sequence (P00533 25-1210): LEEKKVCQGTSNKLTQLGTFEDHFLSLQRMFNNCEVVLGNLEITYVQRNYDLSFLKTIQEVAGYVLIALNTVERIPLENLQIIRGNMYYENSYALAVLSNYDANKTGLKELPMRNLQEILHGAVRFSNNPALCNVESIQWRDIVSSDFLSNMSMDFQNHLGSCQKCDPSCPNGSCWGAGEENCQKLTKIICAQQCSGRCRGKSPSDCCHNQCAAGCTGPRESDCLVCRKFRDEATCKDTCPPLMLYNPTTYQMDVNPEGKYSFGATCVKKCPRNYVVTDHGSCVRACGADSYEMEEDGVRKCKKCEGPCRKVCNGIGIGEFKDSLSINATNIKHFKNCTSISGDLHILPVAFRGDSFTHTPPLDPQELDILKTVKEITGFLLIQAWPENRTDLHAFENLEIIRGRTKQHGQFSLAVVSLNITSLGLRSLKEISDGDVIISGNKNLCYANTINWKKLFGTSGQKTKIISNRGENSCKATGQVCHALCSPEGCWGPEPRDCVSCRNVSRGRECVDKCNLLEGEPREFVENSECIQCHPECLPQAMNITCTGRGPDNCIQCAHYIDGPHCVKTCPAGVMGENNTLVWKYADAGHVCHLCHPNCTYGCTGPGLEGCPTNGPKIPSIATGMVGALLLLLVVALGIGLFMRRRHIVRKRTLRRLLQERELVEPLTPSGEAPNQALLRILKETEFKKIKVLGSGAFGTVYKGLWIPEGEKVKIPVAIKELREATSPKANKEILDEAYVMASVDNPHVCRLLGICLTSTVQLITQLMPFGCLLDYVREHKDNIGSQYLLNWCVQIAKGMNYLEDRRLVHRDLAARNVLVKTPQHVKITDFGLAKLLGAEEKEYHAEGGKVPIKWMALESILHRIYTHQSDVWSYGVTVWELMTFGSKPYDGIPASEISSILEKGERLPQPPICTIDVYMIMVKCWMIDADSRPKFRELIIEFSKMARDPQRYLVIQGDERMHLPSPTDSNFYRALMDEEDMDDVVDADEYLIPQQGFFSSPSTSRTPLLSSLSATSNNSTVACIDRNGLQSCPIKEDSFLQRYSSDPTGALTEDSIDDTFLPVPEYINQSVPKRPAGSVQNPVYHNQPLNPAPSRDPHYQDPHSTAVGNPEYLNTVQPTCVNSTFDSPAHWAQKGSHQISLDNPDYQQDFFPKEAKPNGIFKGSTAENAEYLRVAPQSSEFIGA
Outline: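 Readout is ABTS absorbance at 410 nm after anti-phosphotyrosine and HRP-antibody detection of EGFR autophosphorylation. The kinase was immunocaptured from A431 lysate, exposed 30 min to test compound diluted 1:10 in TBS, then phosphorylated for 5 min with ATP/MnCl2 before an EDTA stop.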

Row | Compound | PDGF Kinase % Inhibition (P.119) [1] | Biochem EGFR % Inhibition (P.167) [2]
1 | O=C1Nc2ccc(S(=O)(=O)Nc3ccc(C(F)(F)F)cc3)cc2C1=Cc1ccoc1 [10739/E10] | 25.6% | 17.5%
2 | O=C1Nc2ccc(S(=O)(=O)Nc3ccc(C(F)(F)F)cc3)cc2C1=Cc1ccc(CO)o1 [10739/E11] | 15.9% | −23.4%
3 | COc1ccc(C=C2C(=O)Nc3ccc(S(=O)(=O)N4CCOCC4)cc32)cc1C [10739/F02] | 6.2% | −3.6%
4 | O=C1Nc2ccc(S(=O)(=O)N3CCOCC3)cc2C1=Cc1cccc(OCc2ccccc2)c1 [10739/F03] | −7.4% | −10.8%
5 | O=C1Nc2ccc(S(=O)(=O)N3CCOCC3)cc2C1=Cc1ccc(OCc2ccccc2)cc1 [10739/F04] | −4.0% | −7.0%
6 | O=C1Nc2ccc(S(=O)(=O)N3CCOCC3)cc2C1=CC1COc2ccccc2O1 (stereo not shown) [10739/F05] | −4.5% | −16.4%
7 | O=C1Nc2ccc(S(=O)(=O)N3CCOCC3)cc2C1=Cc1ccc(O)cc1Cl [10739/F06] | 9.1% | −15.3%
8 | O=C1Nc2ccc(S(=O)(=O)N3CCOCC3)cc2C1=Cc1cc(O)c(O)c(O)c1 [10739/F07] | 23.7% | 62.4%
9 | COc1ccc(Oc2cccc(C=C3C(=O)Nc4ccc(S(=O)(=O)N5CCOCC5)cc43)c2)cc1 [10739/F08] | 9.1% | −19.1%
10 | CN(C)CCCOc1ccc(C=C2C(=O)Nc3ccc(S(=O)(=O)N4CCOCC4)cc32)cc1 [10739/F09] | 3.3% | −19.6%
11 | O=C1Nc2ccc(S(=O)(=O)N3CCOCC3)cc2C1=Cc1ccoc1 [10739/F10] | 4.2% | −16.8%
12 | O=C1Nc2ccc(S(=O)(=O)N3CCOCC3)cc2C1=Cc1ccc(CO)o1 [10739/F11] | 0.8% | −38.5%
13 | COc1ccc(C=C2C(=O)Nc3ccc(CCCl)cc32)cc1C [10739/G02] | −12.2% | −5.1%
14 | O=C1Nc2ccc(CCCl)cc2C1=Cc1cccc(OCc2ccccc2)c1 [10739/G03] | −6.9% | 2.4%
15 | O=C1Nc2ccc(CCCl)cc2C1=Cc1ccc(OCc2ccccc2)cc1 [10739/G04] | −3.5% | −12.3%
16 | O=C1Nc2ccc(CCCl)cc2C1=CC1COc2ccccc2O1 (stereo not shown) [10739/G05] | −5.9% | −23.0%
17 | O=C1Nc2ccc(CCCl)cc2C1=Cc1ccc(O)cc1Cl [10739/G06] | −6.4% | −31.2%
18 | O=C1Nc2ccc(CCCl)cc2C1=Cc1cc(O)c(O)c(O)c1 [10739/G07] | 10.1% | 10.0%
19 | COc1ccc(Oc2cccc(C=C3C(=O)Nc4ccc(CCCl)cc43)c2)cc1 [10739/G08] | 1.3% | −18.5%
20 | CN(C)CCCOc1ccc(C=C2C(=O)Nc3ccc(CCCl)cc32)cc1 [10739/G09] | 13.9% | −39.8%
21 | O=C1Nc2ccc(CCCl)cc2C1=Cc1ccoc1 [10739/G10] | −0.6% | −38.1%
22 | O=C1Nc2ccc(CCCl)cc2C1=Cc1ccc(CO)o1 [10739/G11] | 7.6% | −23.2%
23 | COc1ccc(C=C2C(=O)Nc3c(Br)cc(Br)c(C)c32)cc1C [10739/H02] | −18.6% | −12.3%
24 | Cc1c(Br)cc(Br)c2c1C(=Cc1cccc(OCc3ccccc3)c1)C(=O)N2 [10739/H03] | −19.5% | 10.0%
25 | Cc1c(Br)cc(Br)c2c1C(=Cc1ccc(OCc3ccccc3)cc1)C(=O)N2 [10739/H04] | −14.2% | −21.9%
26 | Cc1c(Br)cc(Br)c2c1C(=Cc1ccc(O)cc1Cl)C(=O)N2 [10739/H06] | −17.1% | −22.1%
27 | Cc1c(Br)cc(Br)c2c1C(=Cc1cc(O)c(O)c(O)c1)C(=O)N2 [10739/H07] | 14.9% | 10.9%
28 | COc1ccc(Oc2cccc(C=C3C(=O)Nc4c(Br)cc(Br)c(C)c43)c2)cc1 [10739/H08] | −3.5% | −28.5%
29 | Cc1c(Br)cc(Br)c2c1C(=Cc1ccoc1)C(=O)N2 [10739/H10] | −13.2% | −26.6%

Reference: patent publication US20020026053A1, “Novel 3-(substituted) -2- indolinones compounds and use thereof as inhibitors of protein kinase activity” (priority 1997, published 2002)
